Values quoted from earlier work in patent publication US8759364B2, “Methods of treating bone mass diseases” (The Trustees of Columbia University in the City of New York, priority 2008, dated 2014).

Columns and labels:
[1] = in vivo; cited from earlier work
[2] = system: brain-derived serotonin; settings: mice, cited from earlier work
[3] = oral, single dose 250 mg to 2,000 mg/day and multiple doses 250-1,000 mg/day; all dose levels; cited from earlier work
[4] = system: brain serotonin levels; settings: in the amounts administered to mice; cited from earlier work
[5] = target: T1, TPH2 (Homo sapiens, UniProt Q8IWU9); settings: cited from earlier work
T1 sequence (Q8IWU9 1-490): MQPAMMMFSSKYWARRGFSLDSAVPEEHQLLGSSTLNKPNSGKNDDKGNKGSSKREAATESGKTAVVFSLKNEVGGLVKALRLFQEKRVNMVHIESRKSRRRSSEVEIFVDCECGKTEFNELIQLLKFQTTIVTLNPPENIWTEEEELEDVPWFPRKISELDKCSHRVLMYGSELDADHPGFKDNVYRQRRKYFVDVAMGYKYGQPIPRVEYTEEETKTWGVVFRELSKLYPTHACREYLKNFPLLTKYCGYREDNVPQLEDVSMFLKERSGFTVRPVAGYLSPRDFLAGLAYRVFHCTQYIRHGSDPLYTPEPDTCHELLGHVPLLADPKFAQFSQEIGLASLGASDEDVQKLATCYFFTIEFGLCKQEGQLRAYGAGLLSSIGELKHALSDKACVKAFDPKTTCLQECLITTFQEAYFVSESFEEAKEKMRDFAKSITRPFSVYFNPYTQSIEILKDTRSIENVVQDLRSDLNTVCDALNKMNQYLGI

[6] = system: Serotonin levels in the small intestine; settings: mice, twice per day over 3-4 days, about 30-90 mg/kg; after six consecutive doses; cited from earlier work
[7] = system: serotonin in the GI tract; settings: cited from earlier work

Row | SMILES | absorption from the GI tract [1] | brain-derived serotonin ([2]; twice per day over 3-4 days, about 30-90 mg/kg) | crossing of the blood-brain barrier in vivo [2] | adverse events [3] | brain serotonin levels [4] | inhibition of TPH2 compared with TPH1 [5] | Serotonin levels in the small intestine [6] | serotonin in the GI tract reduced to fraction of normal levels ([7]; 135 mg/kg, po, qd) | dose response of GI tract serotonin reduction ([7]; mouse, in vivo)
1 | CC(C)NCC(O)COc1cccc2[nH]ccc12 (stereo not drawn) [Pindolol, pindolol] | beta blocker; rapidly and well | – | – | – | – | – | – | – | –
2 | Nc1nc(OC(c2ccc(-c3cccc(F)c3)cc2)C(F)(F)F)cc(-c2ccc(C[C@H](N)C(=O)O)cc2)n1 (stereo partly drawn) [LP-533401] | – | unchanged | did not cross | Infrequent | not affected | as effectively as | significantly lowered | less than ⅔ | dose response curve
